The test system of data set [1] is cynomolgus monkey model of transient middle cerebral artery occlusion (tMCAO). Briefly: transient middle cerebral artery occlusion (tMCAO) stroke model, MRI lesion and penumbra volume. The data set is classed as in vivo, Macaca fascicularis. The note with it: for overall DWI lesion volume smaller compared to vehicle: I-1 composite. The text has this: A total of 25 adult male Macaca fascicularis macaques were used in this study, with ages ranging from 47-83 months and weights ranging from 2.7-5.4 kg.
Under deep anesthesia, the right eyeball was removed, and the orbital content was dissected and excised using a surgical microscope (KOM300, Konan Medical Inc., Hogo, Japan). A window of approximately 10 mm in diameter was opened just anterior to the foramen of the optic canal at the base of the skull, allowing identification of the right middle cerebral artery (MCA) main trunk beneath the dura. After opening the dura mater, tMCAO was performed using 2 microvascular clips (Sugita TII, 17-001-81, Mizuho Medical, Tokyo, Japan), one on the proximal part of the main MCA trunk and the other on the distal-to-orbitofrontal brunch. Four hours after tMCAO, these clips were removed. After visual confirmation of recanalization of MCA blood flow, the burr hole was closed using Clearfil New Bond (Kuraray Noritake Dental, Inc., Tokyo, Japan) and the orbital cavity was closed according to best veterinary practice.
Transorbital transient MCA occlusion (tMCAO) was performed using 2 microvascular clips, one placed on the proximal part of the main MCA trunk and the other on the distal-to-orbitofrontal branch (references 10, 11, 24). Four hours after MCA occlusion, these clips were removed for recanalization. After visual confirmation of restituted MCA blood flow, the burr hole was closed using Clearfil New Bond (Kuraray Noritake Dental, Inc., Tokyo, Japan) and the orbital cavity was closed according to best veterinary practice.
Serial coronal magnetic resonance imaging (MRI) of the brain (3 mm slice thickness) was performed 0.5, 1.5, 1.8, 3.5, 6.0, 24 and 120 h post-occlusion. Imaging sequences were (i) diffusion-weighted imaging (DWI), arterial spin labeling (ASL), (ii) magnetic resonance angiography (MRA), and (iii) fluid-attenuated inversion-recovery (FLAIR) T2-weighted imaging. Apparent diffusion coefficient (ADC) maps, cerebral blood flow (CBF), and perfusion deficit were generated with FuncTool Performance (GE Healthcare, Milwaukee, WI, USA) available on the MRI scanner console. Inhibition of lesion volume was considered the primary efficacy endpoint. Penumbral volume (mm^3) was calculated by subtracting the lesion volume delineated from the DWI diffusion maps from the total calculated perfusion deficit.
The infarct (lesion) areas (mm^2) of each coronal image were marked using OsiriX version 8.0.2 (Pixmeo SARL, Bernex, Switzerland). The infarct was manually delineated using DWI maps. The lesion volume (mm^3) was calculated as the sum of the product of each section's infarct area and slice thickness (3 mm). […] The perfusion deficit (mm^3) was calculated from ASL maps as a reduction to <30% and <50% of the corresponding region of the contralateral side. […] Penumbral volume (mm^3) was calculated by subtracting the lesion volume delineated from the DWI diffusion maps from the total calculated perfusion deficit.
Macaques received a bolus dose of vehicle (40% PEG400 in 0.9% saline) or I-1 into a saphenous vein 2 h after occlusion (2 h prior to restoration of MCA blood flow), followed immediately by a 22 h intravenous infusion. This dosing regimen was designed to rapidly achieve and maintain pre-determined plasma and cerebrospinal fluid (CSF) steady-state concentrations of I-1 based on its pharmacokinetics previously determined in näive and MCA occluded macaques (Tables A-C below).

The nature of data set [2]: physiological parameter assessment during tMCAO study. The data set is classed as in vivo, Macaca fascicularis. How it is done:
Body weight, core body temperature, mean arterial blood pressure (MABP), heart rate, pO2, pCO2, sO2 and blood pH were assessed prior to and after tMCAO at designated intervals in relation to reported normal physiological ranges for each parameter (references 22-23).

For data set [3], the system named is traumatic brain injury (TBI) in mice. Briefly: mouse traumatic brain injury (TBI) model. The note with it: in vivo. How it is done:
Animals and traumatic brain injury (TBI): TBI is performed with a controlled closed skull injury model as described in Talley-Watts et al. 2012 (J. Neurotrauma 30, 55-66). Following the method described therein, a pneumatic impact device is used to generate a moderate TBI leaving the skull and dura matter intact. To achieve this, C57BL/6 mice are anesthetized with isoflurane (3% induction, 1% maintenance) in 100% oxygen. A body temperature of 37° C. is maintained using a temperature-controlled heated surgical table. A small midline incision is made on the scalp using aseptic surgical techniques. A 5 mm stainless steel disc is positioned on the skull and fixed using superglue on the right parietal bone between bregma and lamda over the somatosensory cortex. The mouse is then positioned on a stage directly under the pneumatic impact tip. […] Mice are placed in a Thermo-Intensive Care Unit (Braintree Scientific model FV-1; 37° C.; 27% O2) and monitored until fully awake and moving freely. […]
Western Blot Analysis for GFAP: At selected survival times, mice are anesthetized under isoflurane and sacrificed. […] The homogenate is transferred to a 2 mL tube and centrifuged at 1000 g for 10 minutes at 4° C. and the supernatant is collected and analyzed. Protein concentration is determined by the BCA assay using a 1:50 dilution. […]

The nature of data set [4]: brain tissue binding (free fraction). The data set is classed as in vitro ADME, mouse. The text has this:
Example 3 of U.S. Pat. No. 9,789,131, which is incorporated herein by reference, describes assays for determining the plasma and brain free fraction of certain compounds such as I-1. Compounds described herein may be evaluated using such assays or similar variants thereof.

The values below come from patent US20250177405A1, “METHODS OF TREATING NEUROLOGICAL AND CARDIOVASCULAR CONDITIONS” (ASTROCYTE PHARMACEUTICALS, INC., priority 2021, published 2025).

SMILES strings stand for the structures. “Also recorded” adds a separate entry of the source.

`CSc1nc(N)c2ncn([C@H]3C(O)C(O)[C@]4(CO)C[C@H]34)c2n1` (stereo in doubt) [Compound I-1]: in data set [1] (1.8-6.0 h post-occlusion, versus vehicle and pre-treatment, composite p=0.004), the “lesion growth rate (slope of lesion growth) after treatment initiation” value is “rapid decrease in lesion growth rate”. Also, the “decrease in penumbra volume during the ischemic period” value in data set [1] (I-1-treated composite (n=16), 0.5 h to 3.5 h post-occlusion, vehicle 71%, p=0.01) stood at 48%. Also, the “rate of penumbra volume decrease” value in data set [1] (I-1-treated composite, vehicle 604.5 mm^3/h) is on record as 296.0 mm^3/h. Also, the “overall DWI lesion volume smaller compared to vehicle” value is on record as 20% in data set [1] (24 h post-occlusion, p=0.07) and 30% in data set [1] (120 h post-occlusion, p=0.05). Further, in data set [2] (baseline and during the study period), the “physiological parameters versus vehicle-treated group” value was “no clinically relevant differences”. In data set [2] (systemic I-1 administration, tMCAO macaques), the “MABP or heart rate” value is given as “did not result in significant alterations”. Further, the “efficacy in mouse TBI model” value in data set [3] is on record as “effective; also recorded: significant efficacy”. Moreover, in data set [4] (mouse brain tissue), the “free (unbound) fraction in brain” value came out at 0.13. The “fraction available to interact with the A3 receptor, versus Cl-IB-IMECA” value in data set [4] (mouse models) was “at least 1000 fold”.
